Measured values: ChEMBL document CHEMBL1201862, “PubChem BioAssay data set” (2004)
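Test compounds were applied to cells in 96-well plates for 48 hours at 5 doses. Here, GI50 denotes the concentration required for 50% inhibition of growth.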 Active and inactive are the calls of the source. Cut-off read from the data, not from the text of the source: active = GI50 up to about 1.1 µM and inactive = higher.

What was measured:
Assay in all cases: inhibition of tumour cell growth, NCI panel, 48 h
K562 = system: K562
M14 = system: M14
PC-3 = system: PC-3
HT-29 = system: HT-29
UO-31 = system: UO-31
OVCAR-4 = system: OVCAR-4
NCI-H226 = system: NCI-H226
SW-620 = system: SW-620
MDA-N = system: MDA-N
SF-539 = system: SF-539
SN12C = system: SN12C
IGROV-1 = system: IGROV-1
HOP-62 = system: HOP-62
MCF7 = system: MCF7
SK-MEL-28 = system: SK-MEL-28
HCT-15 = system: HCT-15
OVCAR-5 = system: OVCAR-5
NCI-H522 = system: NCI-H522
TK-10 = system: TK-10
HL-60 = system: HL-60
SR = system: SR
SNB-75 = system: SNB-75
EKVX = system: EKVX
SK-OV-3 = system: SK-OV-3
Hs-578T = system: Hs-578T
MOLT-4 = system: MOLT-4
MDA-MB-435 = system: MDA-MB-435
A549 = system: A549
U-251 = system: U-251
NCI-H460 = system: NCI-H460
NCI-H23 = system: NCI-H23
ACHN = system: ACHN
Malme-3M = system: Malme-3M
KM12 = system: KM12
OVCAR-3 = system: OVCAR-3
786-0 = system: 786-0
COLO 205 = system: COLO 205
NCI/ADR-RES = system: NCI/ADR-RES
LOX IMVI = system: LOX IMVI
SF-268 = system: SF-268
OVCAR-8 = system: OVCAR-8
SK-MEL-2 = system: SK-MEL-2
RXF 393 = system: RXF 393
RPMI-8226 = system: RPMI-8226
SK-MEL-5 = system: SK-MEL-5
SNB-19 = system: SNB-19
HOP-92 = system: HOP-92
SF-295 = system: SF-295
T47D = system: T47D
HCT-116 = system: HCT-116
BT-549 = system: BT-549
MDA-MB-231 = system: MDA-MB-231
CCRF-CEM = system: CCRF-CEM
A498 = system: A498
DU-145 = system: DU-145
CAKI-1 = system: CAKI-1
UACC-257 = system: UACC-257
HCC 2998 = system: HCC 2998
UACC-62 = system: UACC-62

## Oc1ccccc1/C=N/c1ccc(-c2nc3ccccc3[nH]2)cc1
K562
  GI50: 43.2 µM (inactive)
M14
  GI50: 63.4 µM (inactive)
PC-3
  GI50: 50.5 µM (inactive)
HT-29
  GI50: 81.8 µM (inactive)
UO-31
  GI50: 63.1 µM (inactive)
OVCAR-4
  GI50: > 100 µM (inactive)
NCI-H226
  GI50: > 100 µM (inactive)
SW-620
  GI50: 90.2 µM (inactive)
MDA-N
  GI50: 54.7 µM (inactive)
SF-539
  GI50: > 100 µM (inactive)
SN12C
  GI50: 79.1 µM (inactive)
IGROV-1
  GI50: 28.4 µM (inactive)
HOP-62
  GI50: > 100 µM (inactive)
MCF7
  GI50: 20.7 µM (inactive)
SK-MEL-28
  GI50: > 100 µM (inactive)
HCT-15
  GI50: 29.6 µM
OVCAR-5
  GI50: > 100 µM (inactive)
NCI-H522
  GI50: 63.5 µM (inactive)
TK-10
  GI50: > 100 µM (inactive)
HL-60
  GI50: 25.2 µM (inactive)
SR
  GI50: 44.7 µM (inactive)
SNB-75
  GI50: 42.1 µM (inactive)
EKVX
  GI50: > 100 µM (inactive)
SK-OV-3
  GI50: > 100 µM (inactive)
Hs-578T
  GI50: > 100 µM (inactive)
MOLT-4
  GI50: 21.3 µM (inactive)
MDA-MB-435
  GI50: 67.6 µM (inactive)
A549
  GI50: > 100 µM (inactive)
U-251
  GI50: 49.9 µM (inactive)
NCI-H460
  GI50: 54.8 µM (inactive)
NCI-H23
  GI50: 50.5 µM (inactive)
ACHN
  GI50: > 100 µM (inactive)
Malme-3M
  GI50: 93.3 µM (inactive)
KM12
  GI50: 43.3 µM (inactive)
OVCAR-3
  GI50: > 100 µM (inactive)
786-0
  GI50: > 100 µM (inactive)
COLO 205
  GI50: 47.2 µM (inactive)
NCI/ADR-RES
  GI50: 4.53 µM (inactive)
LOX IMVI
  GI50: > 100 µM (inactive)
SF-268
  GI50: 43 µM (inactive)
OVCAR-8
  GI50: 47.1 µM (inactive)
SK-MEL-2
  GI50: > 100 µM (inactive)
RXF 393
  GI50: 29.7 µM (inactive)
RPMI-8226
  GI50: 26.6 µM (inactive)
SK-MEL-5
  GI50: 27.8 µM (inactive)
SNB-19
  GI50: > 100 µM (inactive)
HOP-92
  GI50: 22.9 µM (inactive)
SF-295
  GI50: 71 µM (inactive)
T47D
  GI50: 10.4 µM (inactive)
HCT-116
  GI50: 53.6 µM (inactive)
BT-549
  GI50: 12.8 µM (inactive)
MDA-MB-231
  GI50: 40.5 µM (inactive)
CCRF-CEM
  GI50: 22.5 µM (inactive)
A498
  GI50: > 100 µM (inactive)
DU-145
  GI50: 65.8 µM (inactive)
CAKI-1
  GI50: > 100 µM (inactive)
UACC-257
  GI50: 47.8 µM (inactive)

## COc1ccc2c(c1)/C(=C\c1c(C)nc3sc(C)cn13)C(=O)N2
K562
  GI50: 0.446 µM (active)
M14
  GI50: 0.75 µM (active)
PC-3
  GI50: 0.385 µM (active)
HT-29
  GI50: 0.363 µM (active)
UO-31
  GI50: 3.92 µM (inactive)
OVCAR-4
  GI50: 12.7 µM (inactive)
NCI-H226
  GI50: 0.841 µM (active)
SW-620
  GI50: 0.687 µM (active)
MDA-N
  GI50: 0.124 µM (active)
SF-539
  GI50: 0.204 µM (active)
SN12C
  GI50: 8.49 µM (inactive)
HCC 2998
  GI50: 0.337 µM (active)
IGROV-1
  GI50: 0.755 µM (active)
HOP-62
  GI50: 1.53 µM (inactive)
MCF7
  GI50: 0.332 µM (active)
SK-MEL-28
  GI50: 54.6 µM (inactive)
HCT-15
  GI50: 0.49 µM
OVCAR-5
  GI50: 3.24 µM (inactive)
NCI-H522
  GI50: 0.175 µM (active)
TK-10
  GI50: 3.18 µM (inactive)
HL-60
  GI50: 0.292 µM (active)
SR
  GI50: 0.409 µM (active)
EKVX
  GI50: 3.24 µM (inactive)
SK-OV-3
  GI50: 1.64 µM (inactive)
Hs-578T
  GI50: 1.22 µM (inactive)
MOLT-4
  GI50: 0.778 µM (active)
MDA-MB-435
  GI50: 0.106 µM (active)
A549
  GI50: 1.36 µM (inactive)
U-251
  GI50: 0.217 µM (active)
NCI-H460
  GI50: 0.205 µM (active)
NCI-H23
  GI50: 2.31 µM (inactive)
ACHN
  GI50: 3.83 µM (inactive)
Malme-3M
  GI50: 0.172 µM (active)
KM12
  GI50: 0.327 µM (active)
OVCAR-3
  GI50: 0.297 µM (active)
786-0
  GI50: 2.32 µM (inactive)
COLO 205
  GI50: 0.14 µM (active)
NCI/ADR-RES
  GI50: 1.36 µM (inactive)
LOX IMVI
  GI50: 1.87 µM (inactive)
SF-268
  GI50: 2.35 µM (inactive)
OVCAR-8
  GI50: 2.94 µM (inactive)
SK-MEL-2
  GI50: 0.263 µM (active)
RXF 393
  GI50: 1.64 µM (inactive)
RPMI-8226
  GI50: 0.581 µM (active)
SK-MEL-5
  GI50: 0.206 µM (active)
SNB-19
  GI50: 3.33 µM (inactive)
SF-295
  GI50: 0.309 µM (active)
T47D
  GI50: 9.89 µM (inactive)
HCT-116
  GI50: 0.498 µM (active)
BT-549
  GI50: 1.66 µM (inactive)
MDA-MB-231
  GI50: 0.855 µM (active)
CCRF-CEM
  GI50: 0.455 µM (active)
A498
  GI50: 0.531 µM (active)
DU-145
  GI50: 4.83 µM (inactive)
CAKI-1
  GI50: 2.13 µM (inactive)
UACC-62
  GI50: 0.274 µM (active)
UACC-257
  GI50: 1.41 µM (inactive)

## CC(=O)OCC1OC(Nc2ccc3nc(C)n(-c4cccc(C)c4)c(=O)c3c2)C(OC(C)=O)C(OC(C)=O)C1OC(C)=O (configuration not stated)
K562
  GI50: > 62.5 µM (inactive)
PC-3
  GI50: > 62.5 µM (inactive)
HT-29
  GI50: > 62.5 µM (inactive)
UO-31
  GI50: > 62.5 µM (inactive)
OVCAR-4
  GI50: > 62.5 µM (inactive)
NCI-H226
  GI50: > 62.5 µM (inactive)
SW-620
  GI50: > 62.5 µM (inactive)
MDA-N
  GI50: > 62.5 µM (inactive)
SN12C
  GI50: > 62.5 µM (inactive)
HCC 2998
  GI50: > 62.5 µM (inactive)
IGROV-1
  GI50: > 62.5 µM (inactive)
HOP-62
  GI50: > 62.5 µM (inactive)
MCF7
  GI50: > 62.5 µM (inactive)
SK-MEL-28
  GI50: > 62.5 µM (inactive)
HCT-15
  GI50: > 62.5 µM
OVCAR-5
  GI50: > 62.5 µM (inactive)
NCI-H522
  GI50: > 62.5 µM (inactive)
TK-10
  GI50: > 62.5 µM (inactive)
HL-60
  GI50: > 62.5 µM (inactive)
SR
  GI50: > 62.5 µM (inactive)
SNB-75
  GI50: > 62.5 µM (inactive)
EKVX
  GI50: > 62.5 µM (inactive)
Hs-578T
  GI50: > 62.5 µM (inactive)
MOLT-4
  GI50: > 62.5 µM (inactive)
MDA-MB-435
  GI50: > 62.5 µM (inactive)
U-251
  GI50: > 62.5 µM (inactive)
NCI-H460
  GI50: > 62.5 µM (inactive)
NCI-H23
  GI50: > 62.5 µM (inactive)
ACHN
  GI50: > 62.5 µM (inactive)
Malme-3M
  GI50: > 62.5 µM (inactive)
KM12
  GI50: > 62.5 µM (inactive)
OVCAR-3
  GI50: > 62.5 µM (inactive)
786-0
  GI50: > 62.5 µM (inactive)
COLO 205
  GI50: > 62.5 µM (inactive)
NCI/ADR-RES
  GI50: > 62.5 µM (inactive)
LOX IMVI
  GI50: > 62.5 µM (inactive)
SF-268
  GI50: > 62.5 µM (inactive)
OVCAR-8
  GI50: > 62.5 µM (inactive)
SK-MEL-2
  GI50: > 62.5 µM (inactive)
RXF 393
  GI50: > 62.5 µM (inactive)
RPMI-8226
  GI50: 36.4 µM (inactive)
SK-MEL-5
  GI50: > 62.5 µM (inactive)
SNB-19
  GI50: > 62.5 µM (inactive)
SF-295
  GI50: > 62.5 µM (inactive)
T47D
  GI50: > 62.5 µM (inactive)
HCT-116
  GI50: > 62.5 µM (inactive)
BT-549
  GI50: > 62.5 µM (inactive)
MDA-MB-231
  GI50: > 62.5 µM (inactive)
A498
  GI50: > 62.5 µM (inactive)
DU-145
  GI50: > 62.5 µM (inactive)
CAKI-1
  GI50: > 62.5 µM (inactive)
UACC-62
  GI50: > 62.5 µM (inactive)
UACC-257
  GI50: > 62.5 µM (inactive)
